Key:
Type in all cases: binding
Design in all cases: KINOMEscan: ABL1(F317L)-phosphorylated / KINOMEscan: ABL1(H396P)-nonphosphorylated / KINOMEscan: ABL1(H396P)-phosphorylated / KINOMEscan: ABL1(M351T)-phosphorylated / KINOMEscan: ABL1(T315I)-phosphorylated / KINOMEscan: ABL1-nonphosphorylated / KINOMEscan: ABL1-phosphorylated / KINOMEscan: ACVR2A / KINOMEscan: ACVR2B / KINOMEscan: ADCK3 / KINOMEscan: ADCK4 / KINOMEscan: AKT1 / KINOMEscan: AKT3 / KINOMEscan: ALK / KINOMEscan: ARK5 / KINOMEscan: AURKA / KINOMEscan: AURKC / KINOMEscan: BIKE / KINOMEscan: BMPR1A / KINOMEscan: BMPR1B / KINOMEscan: BMX / KINOMEscan: BRK / KINOMEscan: BRSK1 / KINOMEscan: BRSK2 / KINOMEscan: CAMK1 / KINOMEscan: CAMK1D / KINOMEscan: CAMK1G / KINOMEscan: CAMK2A / KINOMEscan: CAMK2B / KINOMEscan: AAK1 / KINOMEscan: CAMK2D / KINOMEscan: CAMK2G / KINOMEscan: ABL1(F317I)-nonphosphorylated / KINOMEscan: ABL1(F317I)-phosphorylated / KINOMEscan: ABL1(F317L)-nonphosphorylated: unit: % Ctrl
[1] = molecular target: T1, panel of 442 kinases (Homo sapiens, UniProt O14965); settings: Compound Concentration 10 µM
T1 construct: purchased KINOMEscan
T1 sequence (O14965 1-403): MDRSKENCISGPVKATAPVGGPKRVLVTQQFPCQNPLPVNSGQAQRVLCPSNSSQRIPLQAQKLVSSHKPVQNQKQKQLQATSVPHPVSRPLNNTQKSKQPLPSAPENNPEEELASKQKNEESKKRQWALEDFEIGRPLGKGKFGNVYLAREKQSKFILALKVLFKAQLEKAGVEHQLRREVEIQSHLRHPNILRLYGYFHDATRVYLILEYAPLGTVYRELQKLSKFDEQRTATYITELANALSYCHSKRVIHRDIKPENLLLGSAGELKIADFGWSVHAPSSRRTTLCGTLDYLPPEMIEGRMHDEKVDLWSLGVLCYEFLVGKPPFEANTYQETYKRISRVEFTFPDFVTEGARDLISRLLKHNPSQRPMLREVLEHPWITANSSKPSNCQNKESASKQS
Description: (§1) We assessed the selectivity of members of this scaffold using the KINOMEscan methodology across a near comprehensive panel of 442 kinases [[18,27]].

[2] = molecular target: T2, panel of 442 kinases (Homo sapiens, UniProt Q96SB4); settings: kinase SRPK1; compound concentration 10 µM
T2 construct: purchased KINOMEscan
T2 sequence (Q96SB4 whole entry): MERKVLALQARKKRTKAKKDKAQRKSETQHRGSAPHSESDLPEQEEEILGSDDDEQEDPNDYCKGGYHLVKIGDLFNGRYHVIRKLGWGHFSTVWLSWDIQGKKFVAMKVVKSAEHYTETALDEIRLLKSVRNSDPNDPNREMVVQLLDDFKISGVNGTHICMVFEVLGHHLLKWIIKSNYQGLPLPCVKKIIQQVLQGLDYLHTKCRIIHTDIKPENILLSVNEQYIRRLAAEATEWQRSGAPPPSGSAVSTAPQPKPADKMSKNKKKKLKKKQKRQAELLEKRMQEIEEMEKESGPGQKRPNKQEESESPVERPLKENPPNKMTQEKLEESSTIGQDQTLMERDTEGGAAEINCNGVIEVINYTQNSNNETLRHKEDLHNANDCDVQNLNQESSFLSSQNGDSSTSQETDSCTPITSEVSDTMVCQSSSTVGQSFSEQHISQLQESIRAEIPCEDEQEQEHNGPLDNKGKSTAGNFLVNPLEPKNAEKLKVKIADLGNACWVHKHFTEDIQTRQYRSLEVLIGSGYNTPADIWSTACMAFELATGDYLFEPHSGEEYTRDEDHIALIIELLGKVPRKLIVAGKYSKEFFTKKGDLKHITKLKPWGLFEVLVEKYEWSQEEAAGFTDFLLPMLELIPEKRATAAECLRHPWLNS
Description: as §1

[3] = molecular target: T3, panel of 442 kinases (Homo sapiens, UniProt P04049); settings: Compound Concentration 10 µM
T3 construct: purchased KINOMEscan
T3 sequence (P04049 whole entry): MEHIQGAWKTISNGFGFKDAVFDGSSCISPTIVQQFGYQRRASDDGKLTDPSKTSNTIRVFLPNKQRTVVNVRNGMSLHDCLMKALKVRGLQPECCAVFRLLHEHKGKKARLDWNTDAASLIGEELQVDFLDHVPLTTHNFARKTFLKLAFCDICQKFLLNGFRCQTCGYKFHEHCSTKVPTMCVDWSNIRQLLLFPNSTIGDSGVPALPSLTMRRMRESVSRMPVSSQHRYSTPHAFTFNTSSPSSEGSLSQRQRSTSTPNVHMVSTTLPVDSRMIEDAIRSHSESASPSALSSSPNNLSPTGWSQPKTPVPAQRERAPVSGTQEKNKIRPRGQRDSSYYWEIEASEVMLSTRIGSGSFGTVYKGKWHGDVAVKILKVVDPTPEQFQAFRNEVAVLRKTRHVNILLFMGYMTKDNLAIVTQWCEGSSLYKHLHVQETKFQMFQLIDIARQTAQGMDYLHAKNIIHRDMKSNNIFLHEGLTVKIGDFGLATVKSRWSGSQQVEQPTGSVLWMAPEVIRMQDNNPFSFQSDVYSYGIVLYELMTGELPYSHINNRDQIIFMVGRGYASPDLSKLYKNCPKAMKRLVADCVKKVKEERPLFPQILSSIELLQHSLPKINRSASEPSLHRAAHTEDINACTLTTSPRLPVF
Description: as §1

Compound	KINOMEscan: AURKA [1]	% Ctrl, SRPK1 [2]	KINOMEscan: RAF1 [3]
CCOc1cc(C(=O)N2CCC(N3CCN(C)CC3)CC2)ccc1Nc1ncc2c(n1)N(C1CCCC1)c1ccccc1C(=O)N2C [Compound 26]	100	100 % Ctrl	100
COc1cc(C(=O)N2CCC(N3CCN(C)CC3)CC2)ccc1Nc1ncc2c(n1)N(C1CCCC1)c1ccccc1C(=O)N2C [Compound 25, 11-cyclopentyl-2-((2-methoxy-4-(4-(4-methylpiperazin-1-yl)piperidine-1-carbonyl)phenyl)amino)-5-methyl-5H-benzo[e]pyrimido[5,4-b][1,4]diazepin-6(11H)-one]	28	90 % Ctrl	100
COc1cc(C(=O)N2CCC(N3CCN(C)CC3)CC2)ccc1Nc1ncc2c(n1)N1CCc3cccc(c31)C(=O)N2C [Compound 24]	28	74 % Ctrl	
COc1cc(C(=O)N2CCC(N3CCN(C)CC3)CC2)ccc1Nc1ncc2c(n1)N(C)c1ccccc1C(=O)N2C [15 (LRRK2-IN-1)]	1.2	94 % Ctrl	100
